These results are taken from US9540343B2 (Gilead Sciences, Inc., priority 2011, dated 2017).

One data set deals with HIV-IIIb. In words: Test A: Antiviral assay in MT4 cells. It counts as cell-based, HIV-1. Conditions: Human immunodeficiency virus 1, IIIB, MT4, 120 h, read-out: % inhibition at 2 μM, percent inhibition of virus-induced cell killing, from dose response curve at 2 uM drug; MT-4 cells infected with HIV-IIIb, 5 days, CellTiter-Glo.
A short description of another data set: in vitro. The conditions noted are these: human, uninfected MT-4 cells, CC50 (nM), same protocol as Test A, CellTiter-Glo. The essentials:
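Cytoprotection read-out: CellTiter-Glo chemiluminescence after 5 days at 37 °C of HIV-IIIb-infected MT-4 cells (m.o.i. 0.003) with compound in 10-point 3-fold dilutions, quadruplicate, 10% FBS. Cytotoxicity (CC50) measured identically without virus.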

As to `O=C(Cc1c[nH]c2ccc(F)cc12)N[C@@H](Cc1cc(F)cc(F)c1)c1ncccc1-c1ccc(OC(F)(F)F)cc1` [Example 431, (S)—N-(2-(3,5-difluorophenyl)-1-(3-(4-(trifluoromethoxy)phenyl)pyridin-2-yl)ethyl)-2-(5-fluoro-1H-indol-3-yl)acetamide], the inhibition at 2 µM in the data set on HIV-IIIb came out at 7%. In the data set “in vitro”, this compound yielded a CC50 at 5 days of 6390 nM.

Turning to `O=C(Cn1nc(C(F)(F)F)c2c1CCCC2)N[C@@H](Cc1cc(F)cc(F)c1)c1ncccc1-c1ccc(N2CCCC2)nc1` [Example 432, (S)—N-(2-(3,5-difluorophenyl)-1-(6′-(pyrrolidin-1-yl)-3,3′-bipyridin-2-yl)ethyl)-2-(3-(trifluoromethyl)-4,5,6,7-tetrahydro-1H-indazol-1-yl)acetamide], in the data set on HIV-IIIb, the inhibition at 2 µM turned out to be 90%. The compound further had a CC50 at 5 days in the data set “in vitro” of 7990 nM.

Turning to `CS(=O)(=O)Nc1ccc(-c2cccnc2[C@H](Cc2cc(F)cc(F)c2)NC(=O)Cn2nc(C(F)F)c3c2C(F)(F)C2CC32)cc1` (stereo partly drawn) [Example 433, (S)—N-(1-(3-(4-(methylsulfonamido)phenyl)-pyridin-2-yl)-2-(3,5-difluorophenyl)ethyl)-2-(3-(difluoromethyl)-5,6-dihydro-4,5-(methano)-6,6-difluoro-cyclopenta[c]pyrazol-1(4H)-yl)acetamide], in the data set on HIV-IIIb, the inhibition at 2 µM is 16%. Also, the midpoint of cytotoxicity in the data set “in vitro”, the CC50 at 5 days, lay at 20800 nM.

For the compound `O=C(Cc1c[nH]c2ccc(F)cc12)N[C@@H](Cc1cc(F)cc(F)c1)c1ncccc1-c1ccc(Cl)c(F)c1` [Example 434], the inhibition at 2 µM with HIV-IIIb came out at 20%. In “in vitro”, this compound registered a CC50 at 5 days of 12300 nM.

As to `COc1ccc2cc(-c3cccnc3[C@H](Cc3cc(F)cc(F)c3)NC(=O)Cc3c[nH]c4ccc(F)cc34)ccc2c1` [Example 435, (S)—N-(2-(3,5-difluorophenyl)-1-(3-(6-methoxynaphthalen-2-yl)pyridin-2-yl)ethyl)-2-(5-fluoro-1H-indol-3-yl)acetamide], the inhibition at 2 µM with HIV-IIIb stood at 7%. Moreover, in “in vitro”, it took 13900 nM to reach half-maximal cytotoxicity (CC50 at 5 days).

As to `O=C(Cn1nc(C(F)F)c2c1C(F)(F)C1CC21)N[C@@H](Cc1cc(F)cc(F)c1)c1ncccc1-c1ccc2cnccc2c1` (stereo partly shown) [Example 436], the inhibition at 2 µM in the data set with HIV-IIIb is 20%. In “in vitro”, this compound registered a CC50 at 5 days of 11300 nM.

For the compound `NC(=O)c1cc(-c2cccnc2[C@H](Cc2cc(F)cc(F)c2)NC(=O)Cn2cc(C(F)(F)F)nc2CO)ccc1F` [Example 437, (S)-5-(2-(2-(3,5-difluorophenyl)-1-(2-(2-(hydroxymethyl)-4-(trifluoromethyl)-1H-imidazol-1-yl)acetamido)ethyl)pyridin-3-yl)-2-fluorobenzamide], the inhibition at 2 µM in the data set on HIV-IIIb came out at 3%. For the same compound, the CC50 at 5 days in “in vitro” is more than 53200 nM.

With `O=C(Cn1nc(C(F)F)c2c1C(F)(F)C1CC21)N[C@@H](Cc1cc(F)cc(F)c1)c1ncccc1-c1ccc2nccn2c1` (stereo partly drawn) [Example 438, (S)—N-(1-(3-(imidazo[1,2-a]pyridine-6-yl)-pyridin-2-yl)-2-(3,5-difluorophenyl)ethyl)-2-(3-(difluoromethyl)-5,6-dihydro-4,5-(methano)-6,6-difluoro-cyclopenta[c]pyrazol-1(4H)-yl)acetamide], in the data set on HIV-IIIb, the inhibition at 2 µM amounted to 81%. The CC50 at 5 days in “in vitro” worked out at 12100 nM.

In the case of `O=C(Cc1c[nH]c2ccc(F)cc12)N[C@@H](Cc1cc(F)cc(F)c1)c1ncccc1-c1cccnc1` [Example 439, (S)—N-(1-(3,3′-bipyridin-2-yl)-2-(3,5-difluorophenyl)ethyl)-2-(5-fluoro-1H-indol-3-yl)acetamide], in the data set with HIV-IIIb, the inhibition at 2 µM was -2%. In “in vitro”, this compound showed a cytotoxic concentration (CC50) at 5 days of 21700 nM.

On to `Cn1cc(-c2cccnc2[C@H](Cc2cc(F)cc(F)c2)NC(=O)Cc2c[nH]c3ccc(F)cc23)cn1` [Example 440, (S)—N-(2-(3,5-difluorophenyl)-1-(3-(1-methyl-1H-pyrazol-4-yl)pyridin-2-yl)ethyl)-2-(5-fluoro-1H-indol-3-yl)acetamide], for which the inhibition at 2 µM in the data set on HIV-IIIb came to 82%. The compound also showed a CC50 at 5 days in “in vitro” of 21700 nM.

On to `O=C(Cc1c[nH]c2ccc(F)cc12)N[C@@H](Cc1cc(F)cc(F)c1)c1ncccc1-c1ccc2nonc2c1` [Example 441, (S)—N-(1-(3-(benzo[c][1,2,5]oxadiazol-5-yl)pyridin-2-yl)-2-(3,5-difluorophenyl)ethyl)-2-(5-fluoro-1H-indol-3-yl)acetamide], for which the inhibition at 2 µM in the data set on HIV-IIIb stood at 35%. Moreover, in “in vitro”, the midpoint of cytotoxicity, the CC50 at 5 days, lay at 8650 nM.

As for `O=C(Cn1nc(C(F)F)c2c1C(F)(F)C1CC21)N[C@@H](Cc1cc(F)cc(F)c1)c1ncccc1-c1cnc2c(c1)CCCN2` (stereo partly drawn) [Example 442, (S)—N-(1-(3-(5,6,7,8-tetrahydro-1,8-naphthyridin-3-yl)-pyridin-2-yl)-2-(3,5-difluorophenyl)ethyl)-2-(3-(difluoromethyl)-5,6-dihydro-4,5-(methano)-6,6-difluoro-cyclopenta[c]pyrazol-1(4H)-yl)acetamide], the inhibition at 2 µM in the data set on HIV-IIIb is 79%. For the same compound, in “in vitro”, the CC50 at 5 days was 8880 nM.

On to `CS(=O)(=O)n1cc(CC(=O)N[C@@H](Cc2cc(F)cc(F)c2)c2ncccc2-c2ccc(F)c(C(N)=O)c2)c2cc(F)ccc21` [Example 444, (S)-5-(2-(2-(3,5-difluorophenyl)-1-(2-(5-fluoro-1-(methylsulfonyl)-1H-indol-3-yl)acetamido)ethyl)pyridin-3-yl)-2-fluorobenzamide], for which the inhibition at 2 µM in the data set on HIV-IIIb stood at 23%. For the same compound, in “in vitro”, the CC50 at 5 days was determined as 15500 nM.

For the compound `NC(=O)c1cc(-c2cccnc2[C@H](Cc2cc(F)cc(F)c2)NC(=O)Cc2c[nH]c3ccc(Br)cc23)ccc1F` [Example 445, (S)-5-(2-(1-(2-(5-bromo-1H-indol-3-yl)acetamido)-2-(3,5-difluorophenyl)ethyl)pyridin-3-yl)-2-fluorobenzamide], the inhibition at 2 µM with HIV-IIIb turned out to be 114%. In addition, in “in vitro”, the midpoint of cytotoxicity, the CC50 at 5 days, lay at 10700 nM.

As to `NC(=O)c1cc(-c2cccnc2[C@H](Cc2cc(F)cc(F)c2)NC(=O)Cn2nc(C(F)(F)F)c3c2CCC(=O)C3)ccc1F` [Example 446, (S)-5-(2-(2-(3,5-difluorophenyl)-1-(2-(5-oxo-3-(trifluoromethyl)-4,5,6,7-tetrahydro-1H-indazol-1-yl)acetamido)ethyl)pyridin-3-yl)-2-fluorobenzamide], in the data set on HIV-IIIb, the inhibition at 2 µM turned out to be 79%. In addition, the CC50 at 5 days in “in vitro” is more than 53200 nM.

On to `O=C(Cc1n[nH]c2ccccc12)NC(Cc1cc(F)cc(F)c1)c1nccnc1-c1ccc(Cl)cc1` (stereo not shown) [Example 447, N-(1-(3-(4-chlorophenyl)pyrazin-2-yl)-2-(3,5-difluorophenyl)ethyl)-2-(1H-indazol-3-yl)acetamide], for which, in the data set with HIV-IIIb, the inhibition at 2 µM was found to be 0%. It took 13000 nM to reach half-maximal cytotoxicity in “in vitro” (CC50 at 5 days).

In the case of `NC(=O)c1cc(-c2cccnc2[C@H](Cc2cc(F)cc(F)c2)NC(=O)Cn2nc(C(F)(F)F)c3c2CCC(O)C3)ccc1F` (stereo partly drawn) [Example 448, 5-(2-((1S)-2-(3,5-difluorophenyl)-1-(2-(5-hydroxy-3-(trifluoromethyl)-4,5,6,7-tetrahydro-1H-indazol-1-yl)acetamido)ethyl)pyridin-3-yl)-2-fluorobenzamide], in the data set on HIV-IIIb, the inhibition at 2 µM worked out at 103%. Also, in “in vitro”, the CC50 at 5 days was more than 53200 nM.

With `CC1(C)OB(c2cn(CC(=O)N[C@@H](Cc3cc(F)cc(F)c3)c3ncccc3-c3ccc(F)c(C(N)=O)c3)nc2C(F)(F)F)OC1(C)C` [Example 451B, (S)-5-(2-(2-(3,5-difluorophenyl)-1-(2-(4-(4,4,5,5-tetramethyl-1,3,2-dioxaborolan-2-yl)-3-(trifluoromethyl)-1H-pyrazol-1-yl)acetamido)ethyl)pyridin-3-yl)-2-fluorobenzamide], the inhibition at 2 µM in the data set on HIV-IIIb was determined as 1%. This compound also returned a half-maximal cytotoxic concentration (CC50) at 5 days in the data set “in vitro” of 37100 nM.

Regarding `COC(=O)c1nn(CC(=O)N[C@@H](Cc2cc(F)cc(F)c2)c2ncccc2-c2ccc(F)c(C(N)=O)c2)c2c1COC2` [Example 452C, (S)-methyl 1-(2-((1-(3-(3-carbamoyl-4-fluorophenyl)pyridin-2-yl)-2-(3,5-difluorophenyl)ethyl)amino)-2-oxoethyl)-4,6-dihydro-1H-furo[3,4-c]pyrazole-3-carboxylate], the inhibition at 2 µM in the data set on HIV-IIIb was found to be 4%. The compound further had a 50% cytotoxic concentration (CC50) at 5 days in the data set “in vitro” of 9070 nM.

As to `COC(=O)c1c2c(nn1CC(=O)N[C@@H](Cc1cc(F)cc(F)c1)c1ncccc1-c1ccc(F)c(C(N)=O)c1)COC2` [Example 453, (S)-methyl 2-(2-((1-(3-(3-carbamoyl-4-fluorophenyl)pyridin-2-yl)-2-(3,5-difluorophenyl)ethyl)amino)-2-oxoethyl)-4,6-dihydro-2H-furo[3,4-c]pyrazole-3-carboxylate], in the data set on HIV-IIIb, the inhibition at 2 µM came out at 3%. Also, in “in vitro”, the CC50 at 5 days was more than 53200 nM.

`COc1ccc2[nH]cc(CC(=O)NC(Cc3cc(F)cc(F)c3)c3nccnc3-c3ccc(Cl)cc3)c2n1` (stereo not shown) [Example 454, N-(1-(3-(4-chlorophenyl)pyrazin-2-yl)-2-(3,5-difluorophenyl)ethyl)-2-(5-methoxy-1H-pyrrolo[3,2-b]pyridin-3-yl)acetamide]: the inhibition at 2 µM with HIV-IIIb turned out to be 1%. The CC50 at 5 days in the data set “in vitro” came to 11100 nM.

On to `NC(=O)c1cc(-c2cccnc2[C@H](Cc2cc(F)cc(F)c2)NC(=O)Cn2nc(C(=O)O)c3c2COC3)ccc1F` [Example 456, (S)-1-(2-(1-(3-(3-carbamoyl-4-fluorophenyl)pyridin-2-yl)-2-(3,5-difluorophenyl)ethylamino)-2-oxoethyl)-4,6-dihydro-1H-furo[3,4-c]pyrazole-3-carboxylic acid], for which the inhibition at 2 µM in the data set with HIV-IIIb is 0%. Moreover, the cytotoxic concentration (CC50) at 5 days in “in vitro” is more than 53200 nM.

For the compound `NC(=O)c1cc(-c2cccnc2[C@H](Cc2cc(F)cc(F)c2)NC(=O)Cn2nc(C(F)(F)F)c3c2C2CC2C3O)ccc1F` (stereo partly drawn) [Example 457, 5-(2-((1S)-2-(3,5-difluorophenyl)-1-(2-(4-hydroxy-3-(trifluoromethyl)-4,4-a,5,5a-tetrahydro-1H-cyclopropa[4,5]cyclopenta[1,2-c]pyrazol-1-yl)acetamido)ethyl)pyridin-3-yl)-2-fluorobenzamide], the inhibition at 2 µM with HIV-IIIb turned out to be 64%. Moreover, the 50% cytotoxic concentration (CC50) at 5 days in the data set “in vitro” is more than 53200 nM.
